How the values were obtained:
Assay type in all cases: physicochemical
[1] = UV absorption characteristics of component (A), UV-visible spectrophotometer; details: 100 µM chloroform solution, 10-mm quartz cell; for Maximum absorption wavelength Molar absorption coefficient: at the maximum absorption wavelength
Method: A 100 µM chloroform solution of each benzophenone derivative was prepared and placed in a 10-mm quartz cell. The absorption spectrum was measured using a UV-visible spectrophotometer (V-550, manufactured by JASCO Corporation).

[2] = Solubility of component (A) in monomers and solvents, visual observation; set-up: key to Solubility Butyl acrylate / Solubility Toluene: ⊚: dissolved transparently; ∘: dissolved almost transparently, but turbidity was observed; △: not dissolved; details: for Solubility Butyl acrylate: 0.1 g in butyl acrylate (1.0 g); for Solubility Butyl acrylate / Solubility Toluene: visual; for Solubility Toluene: 0.1 g in toluene (1.0 g); for solubility in butyl acrylate and toluene, result in words: 0.1 g in butyl acrylate (1.0 g) or toluene (1.0 g)
Method: The components (A), A-1 to A-4 and A-9 to A-12, (0.1 g) was added to butyl acrylate (1.0 g) or toluene (1.0 g), and the resulting mixture was stirred. The appearance of the mixture was visually observed, and the solubility was evaluated as follows (Table 5).
• ⊚: dissolved transparently • ∘: dissolved almost transparently, but turbidity was observed • △: not dissolved

[3] = Heat resistance of component (A): 5% weight loss temperature by TG/DTA; details: heating rate 10°C/min, 25°C to 550°C
Method: The 5% weight loss temperature of each benzophenone derivative was measured as follows. Using a simultaneous differential thermal and thermogravimetric analyzer (TG/DTA6200, manufactured by SII), heating was performed at a heating rate of 10°C/min in a measurement range of 25°C to 550°C, and the temperature at which the weight change (TG) decreased by 5% by weight was read.

Row | Maximum absorption wavelength Wavelength [1] | Molar absorption coefficient at 365 nm [1] | Maximum absorption wavelength Molar absorption coefficient [1] | Solubility Butyl acrylate [2] | Solubility Toluene [2] | 5% weight loss temperature [3] | solubility in butyl acrylate and toluene, result in words [2] | Molecule
1 | 328 nm | 3250 L/mol/cm | 31590 L/mol/cm | ○ | ⊚ | – | – | Cc1ccc(C)c(Sc2ccc(C(=O)c3ccc(Sc4cc(C)ccc4C)cc3)cc2)c1 [A-12, 4,4'-Dithio(2,5-dimethylphenyl)benzophenone]
2 | 328 nm | – | 30730 L/mol/cm | ○ | ⊚ | – | – | Cc1cccc(Sc2ccc(C(=O)c3ccc(Sc4cccc(C)c4)cc3)cc2)c1 [A-10, 4,4'-Dithio(3-methylphenyl)benzophenone]
3 | 323 nm | 1100 L/mol/cm | 25100 L/mol/cm | – | – | 239 °C | – | CSc1ccc(C(=O)c2ccc(SC)cc2)cc1 [A-6, 4,4'-Bis(methylthio)benzophenone, reference compound]
4 | 328 nm | – | 31120 L/mol/cm | ○ | ⊚ | – | good solubility | CC(C)(C)c1ccc(Sc2ccc(C(=O)c3ccc(Sc4ccc(C(C)(C)C)cc4)cc3)cc2)cc1 [A-4, 4,4'-Bis(p-tert-butylphenylthio)benzophenone]
5 | 329 nm | 3830 L/mol/cm | 31640 L/mol/cm | ○ | ○ | – | – | Cc1ccc(Sc2ccc(C(=O)c3ccc(Sc4ccc(C)cc4C)cc3)cc2)c(C)c1 [A-11, 4,4'-Dithio(2,4-dimethylphenyl)benzophenone]
6 | 327 nm | – | 31500 L/mol/cm | Δ | ○ | – | – | 4,4'-Ditolylthiobenzophenone [A-2]

The remaining lines, values behind:

Row | Molecule | Maximum absorption wavelength Wavelength [1] | Molar absorption coefficient at 365 nm [1] | Maximum absorption wavelength Molar absorption coefficient [1] | Solubility Butyl acrylate [2] | Solubility Toluene [2] | 5% weight loss temperature [3] | solubility in butyl acrylate and toluene, result in words [2]
7 | S=C(c1ccc(-c2ccccc2)cc1)c1ccc(-c2ccccc2)cc1 [A-1, 4,4'-Diphenylthiobenzophenone] | 326 nm | 3900 L/mol/cm | 32880 L/mol/cm | Δ | Δ | 314 °C | –
8 | CCCCCCCCSc1ccc(C(=O)c2ccc(SCCCCCCCC)cc2)cc1 [A-7, 4,4'-Bis(octylthio)benzophenone, reference compound] | 326 nm | 2000 L/mol/cm | 24800 L/mol/cm | – | – | 282 °C | –
9 | CC(C)c1ccc(Sc2ccc(C(=O)c3ccc(Sc4ccc(C(C)C)cc4)cc3)cc2)cc1 [A-3, 4,4'-Bis(p-isopropylphenylthio)benzophenone] | 327 nm | – | 31440 L/mol/cm | ⊚ | ⊚ | – | good solubility
10 | Cc1ccc(Sc2ccc(C(=O)c3ccccc3)cc2)cc1 [A-5, 4-(p-Tolylthio)benzophenone, reference compound] | 316 nm | 700 L/mol/cm | 13200 L/mol/cm | – | – | 235 °C | –
11 | Cc1cc(C(C)(C)C)ccc1Sc1ccc(C(=O)c2ccc(Sc3ccc(C(C)(C)C)cc3C)cc2)cc1 [A-9, 4,4'-Dithio(4-tert-butyl-2-methylphenyl)benzophenone] | 329 nm | 3870 L/mol/cm | 32600 L/mol/cm | ⊚ | ⊚ | – | –
